Experimental data: publication PMC5818615, “Use of HuH6 and other human-derived hepatoma lines for the detection of genotoxins: a new hope for laboratory animals?” (Archives of Toxicology, 2017)
Like-named read-outs stand apart in the source and are kept apart here. Marks after values point to notes of the source that are not given here.

Tests used:
SK-Hep1 cells = test system: SK-Hep1 cells
Protocol: (§1) The SCGE experiments were conducted as described in an international guideline (Tice et al. [2000]). Reagents for the assays (lysis solution and alkaline electrophoresis buffer) and agarose-coated slides were prepared according to Collins and Dusinska ([2009]).
(§2) Briefly, cells were sub-cultured in 1.0 ml medium in 24–well tissue-culture plates (Sarstedt Inc., Newton, NC, USA). After 24 h, the media were changed and the cells exposed to different concentrations of the test compounds or to the solvent controls (PBS or DMSO). […] To terminate the treatment, the cells were washed twice with PBS (1.0 ml), trypsinized (100 µl T/E per well, 4 min) and then resuspended in 400 µl culture medium containing FBS. Subsequently, the suspensions were transferred to Eppendorf tubes and centrifuged (200g, 5 min). Cell pellets were resuspended in cold PBS.
(§3) In all experiments, acute toxic effects were determined with a CASY® Cell Counter and Analyzer System (Schärfe-System GmbH, Reutlingen, Germany) (Lindl et al. [2005]). SCGE assays were only performed when the viability of the cultures was ≥ 70% (Koppen et al. [2017]). Per experimental point, two cultures were set up in parallel and from each one slide with two separate gels (30,000 cells/gel) was prepared. After unwinding (40 min, pH > 13) and electrophoresis (30 min, 0.75 V/cm, ~ 300 mA, 4 °C, pH > 13), 50 cells were evaluated per gel (200 cells per experimental point). As an endpoint, we determined the tail intensities (“% DNA in tail”) with a computer-aided system Comet Assay IV (Perceptive Instruments, Bury St Edmunds, UK), which is at present the most widely used parameter (Collins et al. [2008]; Moller [2006]). For each gel, the median of the tail intensity was calculated.

WRL68 cells = test system: WRL68 cells
Protocol: as §1, §2, §3

HuH7 cells = test system: HuH7 cells
Protocol: as §1, §2, §3

HuH6 cells = test system: HuH6 cells
Protocol: as §1, §2, §3

HepG2 cells = test system: HepG2 cells
Protocol: as §1, §2, §3

[1] = test system: human derived liver cell lines
Protocol: as §1, §2, §3

Hep3B cells = test system: Hep3B cells
Protocol: as §1, §2, §3

HepaRG cells [2] = test system: HepaRG cells
Protocol: as §1, §2, §3

PLC/PRF cells = test system: PLC/PRF cells
Protocol: as §1, §2, §3

HCC 1.2 cells = test system: HCC 1.2 cells
Protocol: as §1, §2, §3

SNU-449 cells = test system: SNU-449 cells
Protocol: as §1, §2, §3

SNU-398 cells = test system: SNU-398 cells
Protocol: as §1, §2, §3

JHH6 cells = test system: JHH6 cells
Protocol: as §1, §2, §3

[3] = test system: primary human hepatocytes; details: cited from earlier work
HepaRG cells [4] = details: ref Le Hegarat et al. [2014]; cited from earlier work
p53 protein = experiment: Induction of p53 protein expression (Western Blot) in liver cell lines; type: cell-based, human; set-up: key to P53 protein expression (Western Blot) Induced: No expression is indicated with −; background expression with +; induced expression with ++; highly induced expression with +++; details: for P53 protein expression (Western Blot) Induced: 30 µM B(a)P for 24 h
Protocol: (§4) The expression of the p53 gene in the different cell lines was analyzed using real-time quantitative PCR (RT-qPCR) according to the description of Straser et al. ([2013]). The protein was quantified by Western blotting as described by Pezdirc et al. ([2013]).

p53 gene = experiment: Induction of p53 gene expression (RT-qPCR) in liver cell lines; type: cell-based, human; details: 30 µM B(a)P for 24 h
Protocol: as §4

Molecule: aflatoxin B1 [AFB1]
- % DNA in tail (SK-Hep1 cells): 0.60 ± 0.41 1.30 ± 0.37 1.13 ± 0.72 1.24 ± 0.88%
- % DNA in tail (WRL68 cells): 3.14 ± 1.66 2.32 ± 0.89 1.98 ± 0.41 1.72 ± 0.78%
- % DNA in tail (HuH7 cells): 6.29 ± 1.57 2.76 ± 0.52 3.12 ± 0.70 5.81 ± 4.64%
- % DNA in tail (HuH6 cells): 1.50 ± 1.09 3.35 ± 2.75 7.20 ± 3.1* 11.9 ± 4.30 %
- % DNA in tail (HepG2 cells): 1.02 ± 0.28 0.85 ± 0.41 2.96 ± 0.66* 5.17 ± 1.57 %
- Number of the twelve lines sensitive towards the compound [1]: Seven out of twelve lines
- % DNA in tail (Hep3B cells): 0.93 ± 0.86 1.35 ± 0.81 4.03 ± 1.93* 4.31 ± 0.92 %
- % DNA in tail (HepaRG cells [2]): 4.16 ± 1.40 11.6 ± 1.50* 9.67 ± 2.17* 7.5 ± 1.76 %
- Result of SCGE experiments (in words) (HepaRG cells [2]): detected
- % DNA in tail (PLC/PRF cells): 1.84 ± 1.44 4.57 ± 1.83 4.77 ± 1.75 6.68 ± 2.94 %
- % DNA in tail (HCC 1.2 cells): 1.38 ± 0.48 3.74 ± 2.69 4.02 ± 1.22 8.75 ± 1.48 %
- % DNA in tail (SNU-449 cells): 2.87 ± 2.05 2.04 ± 2.18 1.14 ± 1.95 3.37 ± 3.14%
- % DNA in tail (SNU-398 cells): 2.50 ± 1.08 2.53 ± 1.68 3.06 ± 0.28 2.83 ± 0.61%

Molecule: N-nitrosodimethylamine [NDMA]
- % DNA in tail (SK-Hep1 cells): 0.46 ± 0.16 0.70 ± 0.42 0.59 ± 0.24 0.37 ± 0.34%
- % DNA in tail (WRL68 cells): 0.43 ± 0.22 1.03 ± 0.74 0.93 ± 0.05 0.12 ± 0.01%
- % DNA in tail (HuH7 cells): 0.61 ± 0.35 0.69 ± 0.48 0.77 ± 0.60 3.01 ± 2.11 %
- Result of SCGE experiments (in words) (HuH7 cells): induction of DNA damage was found
- % DNA in tail (HuH6 cells): 1.73 ± 2.62 2.91 ± 1.45 6.86 ± 1.74* 13.1 ± 4.41 %
- % DNA in tail (HepG2 cells): 0.35 ± 0.21 0.83 ± 0.26 1.12 ± 0.72 1.55 ± 0.49 %
- % DNA in tail (JHH6 cells): 1.17 ± 1.11 1.33 ± 0.66 1.69 ± 0.81 1.16 ± 0.53%
- Doses required to cause significant effects in SCGE assays [1]: ≥ 100 mM
- Number of the twelve lines sensitive towards the compound [1]: five
- % DNA in tail (Hep3B cells): 0.57 ± 0.21 0.62 ± 0.45 0.92 ± 0.45 0.61 ± 0.47%
- % DNA in tail (HepaRG cells [2]): 0.96 ± 0.59 1.47 ± 0.10 1.41 ± 1.04 5.09 ± 0.52 %
- Result of SCGE experiments (in words) (HepaRG cells [2]): detected
- % DNA in tail (PLC/PRF cells): 1.15 ± 1.25 1.04 ± 0.33 1.65 ± 1.55 1.09 ± 0.33%
- % DNA in tail (HCC 1.2 cells): 1.77 ± 1.64 16.3 ± 4.52* 17.1 ± 3.64* 8.87 ± 0.30 %
- % DNA in tail (SNU-449 cells): 0.23 ± 0.16 0.52 ± 0.24 0.54 ± 0.11 0.15 ± 0.03%
- % DNA in tail (SNU-398 cells): 0.40 ± 0.14 0.65 ± 0.50 0.83 ± 0.53 0.28 ± 0.11%
- Sensitivity of primary hepatocytes compared with HepG2 [3]: substantially stronger effects

Molecule: OO [H2O2, hydrogen peroxide]
- Sensitivity towards H2O2-induced DNA damage (HepaRG cells [2]): by far less sensitive

Molecule: Cc1ccc(N)cc1N [2,4-diaminotoluene]
- Result of SCGE experiments (in words) (HepaRG cells [4]): negative results

Molecule: c1ccc2c(c1)cc1ccc3cccc4ccc2c1c34 [B(a)P, benzo(a)pyrene]
- P53 protein expression (Western Blot) Induced (p53 protein; HCC 1.2 cells, background +, mutated p53): +
- P53 protein expression (Western Blot) Induced (p53 protein; Hep3B cells, background −): −
- p53 protein induction (in words) (p53 protein; HepG2, B(a)P treatment for 24 h): induced
- P53 protein expression (Western Blot) Induced (p53 protein; HepG2 cells, background +): +++
- P53 protein expression (Western Blot) Induced (p53 protein; HepaRG cells, background +): +
- p53 protein induction (in words) (p53 protein; HuH6, B(a)P treatment for 24 h): induced
- P53 protein expression (Western Blot) Induced (p53 protein; HuH6 cells, background +): ++
- P53 protein expression (Western Blot) Induced (p53 protein; HuH7 cells, background +): +
- P53 protein expression (Western Blot) Induced (p53 protein; JHH6 cells, background +): +
- P53 protein expression (Western Blot) Induced (p53 protein; PLC/PRF cells, background +): +
- P53 protein expression (Western Blot) Induced (p53 protein; SK-Hep1 cells, background +): +
- P53 protein expression (Western Blot) Induced (p53 protein; SNU-398 cells, background +, mutated p53): +
- P53 protein expression (Western Blot) Induced (p53 protein; SNU-449 cells, background +): +
- P53 protein expression (Western Blot) Induced (p53 protein; WRL68 cells, background +): +
- P53 gene expression (RT-qPCR) Induced (p53 gene; HCC 1.2 cells, background 1): 1.50 ± 0.33
- P53 gene expression (RT-qPCR) Induced (p53 gene; Hep3B cells, background 0): 0
- P53 gene expression (RT-qPCR) Induced (p53 gene; HepG2 cells, background 1): 1.48 ± 0.18
- P53 gene expression (RT-qPCR) Induced (p53 gene; HepaRG cells, background 1): 0.87 ± 0.14
- P53 gene expression (RT-qPCR) Induced (p53 gene; HuH6 cells, background 1): 1.26 ± 0.01
- P53 gene expression (RT-qPCR) Induced (p53 gene; HuH7 cells, background 1): 1.13 ± 0.01
- P53 gene expression (RT-qPCR) Induced (p53 gene; JHH6 cells, background 1): 1.00 ± 0.03
- P53 gene expression (RT-qPCR) Induced (p53 gene; PLC/PRF cells, background 1): 0.89 ± 0.05
- P53 gene expression (RT-qPCR) Induced (p53 gene; SK-Hep1 cells, background 1): 1.04 ± 0.12
- P53 gene expression (RT-qPCR) Induced (p53 gene; SNU-398 cells, background 1): 1.03 ± 0.15
- P53 gene expression (RT-qPCR) Induced (p53 gene; SNU-449 cells, background 1): 0.95 ± 0.03
- P53 gene expression (RT-qPCR) Induced (p53 gene; WRL68 cells, background 1): 0.96 ± 0.03
- DNA migration in comet assay ([3]; primary liver cells, 50 µM, 3 h, statistically not analyzed, ref Monteith and Vanstone [1995]): increase of DNA migration
- Sensitivity of primary hepatocytes compared with HepG2 ([3]; ref Wilkening et al. [2003]): no difference

Molecule: CC(=O)Nc1ccc2c(c1)Cc1ccccc1-2 [2-acetylaminofluorene]
- Result of SCGE experiments (in words) (HepaRG cells [4]): negative results
